Results from article PMC12509006, “Synthesis and Evaluation of Pyridine-Based Antibacterial Agents that Inhibit ATP Synthase in Acinetobacter baumannii” (ACS Omega, 2025).
≈ marks a conversion by molar mass, not a printed value. Read-outs that look alike come from different tables or passages of the source.

Assays:
HEK 293 cells = assay: XTT cell viability cytotoxicity assay; details: n = 3, 24 h treatment
MDR AB BAA 1605 = assay: Broth microdilution antimicrobial susceptibility assay, MDR isolate; details: Acinetobacter baumannii, BAA1605, read-out: MIC, MDR AB BAA 1605
AB ATCC 17978 [1] = assay: Broth microdilution antimicrobial susceptibility assay, susceptible isolate; details: Acinetobacter baumannii, ATCC17978, read-out: MIC, AB ATCC 17978
[2] = target: T1, A. baumannii ATP synthase (Acinetobacter baumannii, UniProt A3M139); assay: AB ATP synthase inhibition: NADH-driven ATP synthesis in inverted inner membrane vesicles, luciferin/luciferase readout; format: biochemical; details: for Hill coefficient (Hill slope): fit of ATP synthesis dose response curve
T1 construct: endogenous electron transport chains of inverted inner membrane vesicles were energized with NADH; endogenous in cells; host or cells: inverted inner membrane vesicles prepared from A. baumannii ATCC 17978 cells
Protocol: Once synthesized, the pyridine compounds were tested for their ability to inhibit ATP synthase activity using our previously reported luciferin/luciferase assay. Briefly, endogenous electron transport chains of inverted inner membrane vesicles were energized with NADH to generate a proton gradient and to drive ATP synthesis. ATP was measured via luminescence from the luciferase-catalyzed oxidation of D-luciferin. Luminescence activities across increasing inhibitor concentrations were corrected for gradient independent background sources of ATP by comparison with a control containing the protonophore CCCP (carbonyl cyanide 3-chlorophenylhydrazone). The data were then fit to a four-parameter logistic dose–response curve, from which IC50 values and Hill coefficients were determined using a nonlinear least-squares regression.
A. baumannii (ATCC 17978) cells were grown in LB medium at 37 °C with shaking at 150 rpm and harvested by centrifugation in the late exponential phase of growth. Cells were resuspended in TMG buffer (50 mM Tris-HCl, pH 7.5, 5 mM MgCl2, 10% v/v glycerol) with 1 mM phenylmethanesulfonyl fluoride, 1 mM dithiothreitol, and a small amount of DNase and lysed by two passes through an Avestin B15 homogenizer at 19,000 psi. Lysate was cleared by centrifugation at 9000g and inverted membrane vesicles were collected from the supernatant by centrifugation at 169,000g. To reduce background ATP synthesis activity in AB vesicles, it was important to wash the membranes by resuspending in TMG buffer and centrifuging again at 169,000g. Washed pellets were resuspended in TMG buffer, and aliquots were stored at −80 °C. Once thawed, aliquots were not refrozen. Protein concentration in membrane vesicles was determined using a modified Lowry assay.
In vitro ATP synthesis activity of inverted inner membrane vesicles was measured as previously described. A reaction solution was prepared containing 5 mM tricine-KOH, pH 8.0, 50 mM KCl, 2.5 mM MgCl2, 0.1 mM adenosine diphosphate, 3.75 mM potassium phosphate, and 2.5 mM NADH and distributed into a 96-well plate. NADH-driven ATP synthesis was initiated by addition of inverted vesicles to 50 μg/mL and allowed to proceed for 10 min. The reaction was stopped by transferring an aliquot into 1% trichloroacetic acid. The stopped reaction was diluted 100-fold with deionized water and a sample was transferred to luciferase solution containing 25 mM tricine-NaOH, pH 7.8, 5 mM MgSO4, 0.1 mM EDTA, 0.1 mM NaN3, 150 μg/mL luciferin, and 7.5 μg/mL luciferase. Luminescence was measured in an opaque white 96-well plate using a BioTek H1 multimode plate reader. Each replicate set included a positive control containing DMSO with no compound and a negative control containing carbonyl cyanide 3-chlorophenylhydrazone (CCCP). Luminescence values were corrected for background by subtracting the CCCP control and normalized to the luminescence of the DMSO control. Normalized activity was fit using a variable-slope dose response curve. Nonlinear regression, including prediction of 95% confidence bands, and pairwise comparisons of fits using the F-test method were completed using GraphPad Prism10. Relativeactivity=1/1+(c/IC50)^Hillslope […]
Figure S1. ATP synthesis inhibition by all pyridine compounds in order of WSA compound number. ATP synthesis activities in inverted inner membrane vesicles prepared from AB cells were measured in the presence of 0.0625-64 µg/mL, corrected for background ATP, and normalized to activity with DMSO alone (see methods). For each plot, dots are normalized activities at each concentration (n≥3) on a log 2 scale, solid lines are fitted dose response curves, and dashed lines show the 95% confidence range of the fit. IC50

AB BAA 1605 = assay: Checkerboard assay with colistin sulfate, BAA 1605; details: without partner drug
Protocol: (§1) Synthesized compounds in DMSO (2–128 μg/mL, row G-A) were combined with colistin sulfate in ultra purified water (0.125–32 μg/mL, column 2–10) in a 96-well microtiter plate checkerboard assay against ATCC 17978 and BAA-1605 (MDR). Briefly, liquid cultures of bacteria were grown for 14–16 h by inoculating a single bacterial culture into 10 mL TSB. To each well 88 μL of TSB, 10 μL of bacteria culture, and 1 from each master plate was added (see layout below). Plates were covered and incubated at 37 °C for 12–18 h.

AB ATCC 17978 [3] = assay: Checkerboard assay with colistin sulfate, ATCC 17978; details: without partner drug
Protocol: as §1

[4] = inverted inner membrane vesicles, 0.0625-64 µg/mL, n≥3, Table S1, read-out: AB ATP Synthase Inhibition IC50 (converted)
[5] = Figure 2, read-out: IC50, AB ATP synthase inhibition (converted)

T1 sequence (A3M139 whole entry): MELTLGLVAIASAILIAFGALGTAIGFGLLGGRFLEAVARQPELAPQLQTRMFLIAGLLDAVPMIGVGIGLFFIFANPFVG

Molecule	MIC, HEK 293 (cytotoxicity) (HEK 293 cells)	MIC (MDR AB BAA 1605)	MIC (AB ATCC 17978 [1])	Hill coefficient (Hill slope) [2]	IC50 [2, 4]	IC50 [2, 5]	Hill coefficient (Hill slope) ([2]; listed as WSA305)	MIC alone, AB BAA 1605 (AB BAA 1605)	MIC alone, AB ATCC 17978 (AB ATCC 17978 [3])
COc1nc2ccc(Br)cc2cc1[C@@H](c1ccccc1)[C@@](O)(CCN(C)C)c1cccc2ccccc12 [Bedaquiline, bedaquiline, reference compound]	> 32 µg/mL	–	–	–	–	–	–	–	–
CNC(C)C1CCC(N)C(OC2C(N)CC(N)C(OC3OCC(C)(O)C(NC)C3O)C2O)O1 (stereo not drawn) [Gentamicin, reference compound]	–	> 16 µg/mL	8 µg/mL (≈ 16.8 µM)	–	–	–	–	–	–
CCN1CCC(CCNCc2cccnc2SCc2ccccc2)CC1 [WSA 264]	–	> 128 µg/mL	> 128 µg/mL	-0.8	83900 nM	–	–	–	–
c1ccc(CSc2ncccc2CNCCC2CCN(C3CCCC3)CC2)cc1 [WSA 265]	–	> 128 µg/mL	> 128 µg/mL	-0.7	132000 nM	–	–	–	–
c1ccc(CSc2ncccc2CNCc2ccc(CN3CCCC3)cc2)cc1 [WSA 267]	–	128 µg/mL (≈ 317 µM)	128 µg/mL (≈ 317 µM)	-0.7	91700 nM	–	–	–	–
CN1CCN(CCNCc2cccnc2SCc2ccccc2)CC1 [WSA 268]	–	> 128 µg/mL	> 128 µg/mL	-0.5	> 180000 nM	–	–	–	–
CN1CCN(CCNCc2cc(Br)cnc2SCc2ccccc2)CC1 [WSA 271]	64 µg/mL (≈ 147 µM)	> 128 µg/mL	> 128 µg/mL	-0.7	2300 nM	–	–	–	–
CCN1CCC(CCNCc2cc(Br)cnc2SCc2ccccc2)CC1 [WSA 272]	32 µg/mL (≈ 71.4 µM)	128 µg/mL (≈ 285 µM)	128 µg/mL (≈ 285 µM)	-0.6	4460 nM	–	–	–	–
CN1CCN(CCNCc2cc(-c3ccccc3)cnc2SCc2ccccc2)CC1 [WSA 277]	16 µg/mL (≈ 37 µM)	128 µg/mL (≈ 296 µM)	32 µg/mL (≈ 74 µM)	-0.7	2170 nM	–	–	–	–
COc1ccc(-c2cnc(SCc3ccccc3)c(CNCCN3CCN(C)CC3)c2)cc1 [WSA 278]	16 µg/mL (≈ 34.6 µM)	128 µg/mL (≈ 277 µM)	64 µg/mL (≈ 138 µM)	-0.8	–	2070 nM	–	–	–
COc1ccc(-c2cnc(SCc3ccccc3)c(CNCCC3CCN(C4CCCC4)CC3)c2)cc1F [WSA 290]	4 µg/mL (≈ 7.49 µM)	32 µg/mL (≈ 60 µM)	32 µg/mL (≈ 60 µM)	-0.7	356 nM	–	–	–	–
Fc1ccc(-c2cnc(SCc3ccccc3)c(CNCCC3CCN(C4CCCC4)CC3)c2)cc1 [WSA 291]	<2 µg/mL	32 µg/mL (≈ 63.5 µM)	32 µg/mL (≈ 63.5 µM)	-1.1	1190 nM	–	–	–	–
Fc1ccc(-c2cnc(SCc3ccccc3)c(CNCCC3CCN(C4CCCC4)CC3)c2)c(F)c1 [WSA 292]	4 µg/mL (≈ 7.67 µM)	32 µg/mL (≈ 61.3 µM)	16 µg/mL (≈ 30.7 µM)	-1.1	997 nM	–	–	–	–
Brc1cnc(SCc2ccccc2)c(CNCc2ccc(CN3CCCC3)cc2)c1 [WSA 293]	64 µg/mL (≈ 133 µM)	64 µg/mL (≈ 133 µM)	32 µg/mL (≈ 66.3 µM)	-1.2	3730 nM	–	–	–	–
c1ccc(CSc2ncc(-c3ccccc3)cc2CNCc2ccc(CN3CCCC3)cc2)cc1 [WSA 294]	8 µg/mL (≈ 16.7 µM)	32 µg/mL (≈ 66.7 µM)	32 µg/mL (≈ 66.7 µM)	-0.7	–	1230 nM	–	–	–
Cc1ccc(-c2cnc(SCc3ccccc3)c(CNCc3ccc(CN4CCCC4)cc3)c2)cc1 [WSA 295]	16 µg/mL (≈ 32.4 µM)	128 µg/mL (≈ 259 µM)	32 µg/mL (≈ 64.8 µM)	-0.7	1090 nM	–	–	–	–
COc1ccc(-c2cnc(SCc3ccccc3)c(CNCc3ccc(CN4CCCC4)cc3)c2)cc1 [WSA 296]	16 µg/mL (≈ 31.4 µM)	128 µg/mL (≈ 251 µM)	32 µg/mL (≈ 62.8 µM)	-0.6	–	863 nM	–	–	–
COc1ccc(-c2cnc(SCc3ccccc3)c(CNCc3ccc(CN4CCCC4)cc3)c2)cc1F [WSA 297]	8 µg/mL (≈ 15.2 µM)	128 µg/mL (≈ 243 µM)	32 µg/mL (≈ 60.6 µM)	-0.8	–	796 nM	–	–	–
Fc1ccc(-c2cnc(SCc3ccccc3)c(CNCc3ccc(CN4CCCC4)cc3)c2)c(F)c1 [WSA 299]	16 µg/mL (≈ 31 µM)	128 µg/mL (≈ 248 µM)	32 µg/mL (≈ 62.1 µM)	-1.1	2130 nM	–	–	–	–
CCN1CCC(CCNCc2cc(-c3ccc(C)cc3)cnc2SCc2ccccc2)CC1 [WSA 300]	4 µg/mL (≈ 8.7 µM)	32 µg/mL (≈ 69.6 µM)	16 µg/mL (≈ 34.8 µM)	-0.7	674 nM	–	–	–	–
Brc1cnc(SCc2ccccc2)c(CNCCC2CCN(C3CCCC3)CC2)c1 [WSA 301]	16 µg/mL (≈ 32.8 µM)	> 128 µg/mL	128 µg/mL (≈ 262 µM)	-0.5	2660 nM	–	–	–	–
c1ccc(CSc2ncc(-c3ccccc3)cc2CNCCC2CCN(C3CCCC3)CC2)cc1 [WSA 302]	16 µg/mL (≈ 32.9 µM)	64 µg/mL (≈ 132 µM)	64 µg/mL (≈ 132 µM)	-0.8	–	988 nM	–	–	–
CN(C)c1ccc(-c2cnc(SCc3ccccc3)c(CNCCC3CCN(C4CCCC4)CC3)c2)cc1 [WSA 303]	4 µg/mL (≈ 7.56 µM)	128 µg/mL (≈ 242 µM)	64 µg/mL (≈ 121 µM)	-1.2	1190 nM	–	–	–	–
CCN1CCC(CCNCc2cc(-c3ccccc3)cnc2SCc2ccccc2)CC1 [WSA 304]	8 µg/mL (≈ 18 µM)	64 µg/mL (≈ 144 µM)	32 µg/mL (≈ 71.8 µM)	-0.7	1370 nM	–	–	–	–
CCN1CCC(CCNCc2cc(-c3ccc(OC)cc3)cnc2SCc2ccccc2)CC1 [WSA 305]	4 µg/mL (≈ 8.41 µM)	32 µg/mL (≈ 67.3 µM)	32 µg/mL (≈ 67.3 µM)	-0.6	568 nM	–	-0.7	–	–
CCN1CCC(CCNCc2cc(-c3ccc(OC)c(F)c3)cnc2SCc2ccccc2)CC1 [WSA 306]	16 µg/mL (≈ 32.4 µM)	32 µg/mL (≈ 64.8 µM)	32 µg/mL (≈ 64.8 µM)	-0.9	1070 nM	–	–	–	–
CCN1CCC(CCNCc2cc(-c3ccc(F)cc3)cnc2SCc2ccccc2)CC1 [WSA 307]	8 µg/mL (≈ 17.3 µM)	32 µg/mL (≈ 69 µM)	32 µg/mL (≈ 69 µM)	-0.8	1160 nM	–	–	–	–
CCN1CCC(CCNCc2cc(-c3ccc(F)cc3F)cnc2SCc2ccccc2)CC1 [WSA 308]	16 µg/mL (≈ 33.2 µM)	64 µg/mL (≈ 133 µM)	32 µg/mL (≈ 66.4 µM)	-0.9	1810 nM	–	–	–	–
colistin [reference compound]	–	–	–	–	–	–	–	1 µg/mL	2 µg/mL
